Test results from patent publication US20120065203A1, “Methods of Reducing Serum Glucose and Triglyceride Levels and for Inhibiting Angiogenesis Using Substituted Indolealkanoic Acids” (The Institute for Pharmaceutical Discovery, LLC, priority 1998, published 2012).
pIC50: −log10 of the molar value. Read-outs that look alike come from different tables or passages of the source.

Assays:
diabetic (db/db) mice = conditions: for mean percent change in glucose (lowering): after four weeks
Procedure: The mice are obese, extremely hyperglycemic and also hyperinsulinemic.
Male db/db mice (8 weeks old) were obtained from Jackson Laboratories and were allowed to acclimate for 1 week before the experiment commenced. A sample of blood was collected from the tail after which plasma glucose was isolated by centrifigation and the glucose concentration was measured in the plasma enzymatically on the COBAS automated clinical_analyzer equipped with a glucose kit that utilized hexokinas to quantitate the amount of glucose in a sample (Roche Diagnostic Systems, kit #47382). Mice with the lowest plasma glucose values were removed from the study and the remaining mice were randomized according to their individual plasma glucose values into 3 treatment groups (n=12 per group), control untreated db/db mice, 100 mg/kg/d compound treated db/db mice and 300_mg/kg/d compound treated db/db mice.
Treatment with the compound was carried out for 4 weeks during which time blood glucose levels were measured weekly from the tail using the One Touch II blood glucose meter (Lifescan, Inc). The blood glucose values of mice in the compound treated groups was compared to the blood glucose values of mice from the control untreated group by an analysis of variance followed by Dunett's Comparison Test (one-tailed).

[1] = system: streptozotocin-induced diabetic rats; conditions: STZ diabetic rats, 10 mg/kg daily by gavage, listed as test compound
Procedure: Diabetes is induced in animals as follows: male Sprague-Dawley rats (150 g), supplied by Harlan Teklad (Madison, Wis.), are allowed to acclimate for 1 week and water is supplied ad libitum. […] STZ, 40 mg/kg, is prepared in 0.03 M citrate buffer, pH 4.5 and administered intraperitoneally after a 24-hr fast. Control animals receive citrate buffer.
Two hours after STZ injection, food is returned. Two days following STZ injection, blood glucose is measured and animals with <300 mg/dL are eliminated. Animals with blood glucose levels ≧300 mg/dL are randomized into diabetic control and treated groups.
In all, three groups of animals are monitored and compared. The groups comprise a (nondiabetic) control group (n=5); an untreated diabetic (control) group (n=7); and treated diabetic group (n=7). […] The nondiabetic and diabetic control groups are administered vehicle.
After the final dose (Day 8), all groups of animals are fasted for 4 hours and anesthetized with CO2, and blood is collected by cardiac puncture into EDTA tubes. The plasma is separated from the red blood cells by centrifugation. Plasma triglyceride levels are quantitated on an automated COBAS chemistry system utilizing the Roche reagent for Triglycerides (Cat #44119). This assay is a standard spectrophotometric enzyme assay that uses a Trinder reaction to measure the final product (Trinder, P., Ann Clin Biochem 6: […], 1969). […]

[2] = system: STZ treated diabetic minipigs; assay: Wound healing in STZ treated diabetic minipigs; type: in vivo, minipig; conditions: STZ diabetic minipigs with wounds, compared with untreated controls
From the text: These animals are compared with control STZ diabetic minipigs also having wounds but that are not treated with the compound.

[3] = molecular target: human aldose reductase (hALR2) (Homo sapiens, UniProt P15121); assay: Inhibition of human aldose reductase (hALR2); type: biochemical
Procedure: Representative compounds of the invention were tested for their potency, selectivity and efficacy as inhibitors of human aldose reductase.

From the text for rat aortic ring: Rats (less than 6 weeks old, approx 150 grams) are individually sacrificed via carbon dioxide asphyxiation. The abdomen and thorax are opened along the midline with scissors using known sterile techniques. The animals are placed recumbent on their right side, to allow displacement of the viscera. The abdominal and thoracic sections of the aorta are carefully separated from the dorsum by dissection along the longitudinal axis of the aorta. The isolated aorta is placed in a petri dish containing sterile, ice cold Hanks' balanced salt solution (Gibco BRL-Life Technologies, Rockville, Md.) for further micro-dissection under a dissecting microscope. The lumenal content of the aorta is dislodged by injection with Hanks, balanced salt solution via a syringe. Adherent adipose, loose connective tissue and segments of intercostal arteries are trimmed from the exterior of the aorta using sterile microsurgical instruments. The aorta is transferred to a clean petri dish containing fresh Hanks' balanced salt solution and the entire aorta is sectioned into 1 to 2 mm thick rings. The two end rings and any other rings which appear damaged are discarded. The aorta is maintained submerged in Hanks' balanced salt solution on ice while plating onto a 48-well plate.
Using a 48-well tissue culture plate, which is chilled on ice, in a tissue culture hood a 120 microliters of thawed Matrigel® (Becton Dickinson Labware, Bedford, Mass.) is plated onto each well using a sterile pipet tip. The Matrigel® is solidified by placing the culture plate for 30 minutes in a 37° C. humidified tissue culture incubator in the presence of 5% CO2. A single aortic ring is placed on edge, with one of its two cut surfaces resting on the Matrigel®, at the center of each well using a sterile curved forcep. The layout of the culture plate is such that the rings from multiple animals are placed in a single column on the plate. In this fashion, the experimental results represent observations based on six animals (n=6). […]

Row | Compound | Blood glucose (diabetic (db/db) mice; 100 mg/kg/d in diet, Week 0, mean ± SD) [mg/dL] | Blood glucose (diabetic (db/db) mice; 100 mg/kg/d in diet, Week 2, mean ± SD) [mg/dL] | Blood glucose (diabetic (db/db) mice; 100 mg/kg/d in diet, Week 4, mean ± SD) [mg/dL] | mean percent change in glucose (lowering) (diabetic (db/db) mice; 100 mg/kg/d) [%] | Blood glucose (diabetic (db/db) mice; 300 mg/kg/d in diet, Week 0, mean ± SD) [mg/dL] | Blood glucose (diabetic (db/db) mice; 300 mg/kg/d in diet, Week 2, mean ± SD) [mg/dL] | mean percent change in glucose (lowering) (diabetic (db/db) mice; 300 mg/kg/d) [%] | Triglyceride lowering compared to diabetic [1] [%] | degree of wound healing [2] | Linear Microvascular Growth (rat aortic ring; Intervention (Days 4-6), compound only on days 4-6, mean ± SD) | Linear Microvascular Growth (rat aortic ring; Prevention (Days 1-6), 50 micromolar, mean ± SD) | Linear Microvascular Growth (rat aortic ring; Removal: 50 micromolar days 1-3, compound removed days 4-6, mean ± SD) | pIC50 [3]
1 | Cc1c(Cc2nc3c(F)c(F)cc(F)c3s2)c2ccccc2n1CC(=O)O [Example 1, 2-methyl-3-(4,5,7-trifluorobenzothiazol-2-yl)methyl-indole-N-acetic acid] | 323 ± 79 | 284 ± 75 | 303 ± 79 | 12 | 313 ± 52 | 240 ± 85 | 40 | 68 | significant increase in the degree of wound healing | 1.97 ± 0.66, n = 5 mm | 1.46 ± 0.48, n = 6 mm | 2.31 ± 0.71, n = 5 mm | –
2 | O=C(O)Cn1cc(Cc2nc3ccc(F)cc3s2)c2ccccc21 [Example 24, 3-[6-Fluorbenzothiazole-2-yl]methyl-indole-N-acetic Acid] | – | – | – | – | – | – | – | – | – | – | – | – | 5.98
